Laboratory results from PMC10065799, “High-throughput profiling of sequence recognition by tyrosine kinases and SH2 domains using bacterial peptide display” (eLife, 2023).
Square brackets hold non-standard residues; d marks the D form. pY = N[C@@H](Cc1ccc(OP(=O)(O)O)cc1)C(=O)O

T1: c-Abl kinase domain (Mus musculus, UniProt P00520)
T1 sequence (P00520 242-493 limits assumed): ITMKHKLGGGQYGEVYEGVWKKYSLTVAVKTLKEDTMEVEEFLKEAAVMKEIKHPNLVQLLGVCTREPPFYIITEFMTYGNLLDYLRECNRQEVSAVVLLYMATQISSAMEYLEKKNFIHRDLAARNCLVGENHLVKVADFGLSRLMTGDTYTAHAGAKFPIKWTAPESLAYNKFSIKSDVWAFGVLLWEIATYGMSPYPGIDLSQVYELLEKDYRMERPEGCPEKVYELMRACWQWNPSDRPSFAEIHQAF

B1: CBS_Y308 phosphopeptide Ac-QVEGIG(pY)DFIPTG-NH2 (peptide)
peptide: Ac-QVEGIG[pY]DFIPTG-NH2
SMILES: CC[C@H](C)[C@H](NC(=O)CNC(=O)[C@H](CCC(=O)O)NC(=O)[C@@H](NC(=O)[C@H](CCC(N)=O)NC(C)=O)C(C)C)C(=O)NCC(=O)N[C@@H](Cc1ccc(OP(=O)(O)O)cc1)C(=O)N[C@@H](CC(=O)O)C(=O)N[C@@H](Cc1ccccc1)C(=O)N[C@H](C(=O)N1CCC[C@H]1C(=O)N[C@H](C(=O)NCC(N)=O)[C@@H](C)O)[C@@H](C)CC
notes: source: synthetic peptide (synthesized in-house, RP-HPLC purified)
B2: CBS_Y308_G307S phosphopeptide Ac-QVEGIS(pY)DFIPTG-NH2 (peptide)
peptide: Ac-QVEGIS[pY]DFIPTG-NH2
SMILES: CC[C@H](C)[C@H](NC(=O)CNC(=O)[C@H](CCC(=O)O)NC(=O)[C@@H](NC(=O)[C@H](CCC(N)=O)NC(C)=O)C(C)C)C(=O)N[C@@H](CO)C(=O)N[C@@H](Cc1ccc(OP(=O)(O)O)cc1)C(=O)N[C@@H](CC(=O)O)C(=O)N[C@@H](Cc1ccccc1)C(=O)N[C@H](C(=O)N1CCC[C@H]1C(=O)N[C@H](C(=O)NCC(N)=O)[C@@H](C)O)[C@@H](C)CC
notes: as for B1
B3: ACTA1_Y171_YF phosphopeptide Ac-QPIFEG(pY)ALPHAG-NH2 (peptide)
peptide: Ac-QPIFEG[pY]ALPHAG-NH2
SMILES: CC[C@H](C)[C@H](NC(=O)[C@@H]1CCCN1C(=O)[C@H](CCC(N)=O)NC(C)=O)C(=O)N[C@@H](Cc1ccccc1)C(=O)N[C@@H](CCC(=O)O)C(=O)NCC(=O)N[C@@H](Cc1ccc(OP(=O)(O)O)cc1)C(=O)N[C@@H](C)C(=O)N[C@@H](CC(C)C)C(=O)N1CCC[C@H]1C(=O)N[C@@H](Cc1c[nH]cn1)C(=O)N[C@@H](C)C(=O)NCC(N)=O
notes: as for B1
B4: ACTA1_Y171_A172G_YF phosphopeptide Ac-QPIFEG(pY)GLPHAG-NH2 (peptide)
peptide: Ac-QPIFEG[pY]GLPHAG-NH2
SMILES: CC[C@H](C)[C@H](NC(=O)[C@@H]1CCCN1C(=O)[C@H](CCC(N)=O)NC(C)=O)C(=O)N[C@@H](Cc1ccccc1)C(=O)N[C@@H](CCC(=O)O)C(=O)NCC(=O)N[C@@H](Cc1ccc(OP(=O)(O)O)cc1)C(=O)NCC(=O)N[C@@H](CC(C)C)C(=O)N1CCC[C@H]1C(=O)N[C@@H](Cc1c[nH]cn1)C(=O)N[C@@H](C)C(=O)NCC(N)=O
notes: as for B1

What was measured:
EPHB1 kinase domain = assay: pTyr-Var library bacterial peptide display kinase screen (enrichment scores); format: biochemical, human; conditions: for Screen: sheet EPHB1, effect of the variant peptide relative to its reference peptide in the pTyr-Var library screen (enrichment scores); for Screen (variant relative to reference peptide, measured in the pTyr-Var library screen): sheet "EPHB1", variant seq vs reference seq, bacterial peptide display enrichment
Fer kinase domain = assay: as above; format: biochemical, mouse; conditions: sheet "Fer"
c-Src kinase domain = c-Src kinase domain (Homo sapiens, UniProt P12931); assay: as above; format: biochemical; conditions: sheet "Src";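 further: log2 fold change in enrichment of variant over reference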
EPHB2 kinase domain = assay: as above; format: biochemical, human; conditions: sheet EPHB2;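 further: log2 fold change in enrichment of variant over reference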
c-Abl kinase domain = target: T1, c-Abl kinase domain; assay: as above; format: biochemical; conditions: fig5-data2, sheet "Abl"; Screen for the variant/reference peptide pair, pTyr-Var library;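 further: log2 fold change in enrichment of variant over reference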
[1] = target: human c-Src SH2 domain (residues 143-250) (human, UniProt P12931-1 143-250, biotin on the Avi tag (co-expression with the biotin ligase BirA)); assay: fluorescence polarisation; competition: unlabeled phosphopeptide serially diluted against 30 nM fluorescent peptide and 240 nM (1.5 x KD) c-Src SH2; same buffer; 25 °C; cubic binding equation; conditions: both partners purified
[2] = value of the variant peptide against its reference peptide in the pTyr-Var library screen with Fer
[3] = effect of the variant peptide relative to its reference peptide in the pTyr-Var library screen
[4] = effect of variant peptide relative to its reference peptide in the pTyr-Var library screen (enrichment scores)
[5] = variant peptide relative to its reference peptide, pTyr-Var library screen enrichment
[6] = variant peptide versus its reference peptide in the pTyr-Var library screen
[7] = effect of the variant relative to its reference peptide in the pTyr-Var library screen

Row | Molecule | Screen (EPHB1 kinase domain) | Screen (Fer kinase domain; [2]) | Screen (c-Src kinase domain; [3]) | Screen (EPHB2 kinase domain; [4]) | also measured
1 | HNVPIYEGFGL [ACTA1_Y168_A172G_YF] | 0.1073 | -0.2533 | -0.3085 | 0.031 | Screen (c-Abl kinase domain): -0.8833
2 | HLVLNYGVCFC [JAK2_Y613_V617F] | 0.008865 | – | – | 0.8396 | Screen (c-Abl kinase domain): 1.962
3 | PFTRNYFVWAV [CYBA_Y87_R90W_YF] | 3.209 | 2.258 | – | 2.204 | Screen (c-Abl kinase domain): 0.4523
4 | ENGPFYASFPP [GDAP2_Y488_T489A_YF] | 1.693 | 0.7376 | 0.1608 | 2.037 | –
5 | VDTGVYAVPPP [BCAR1_Y410_S407T] | 0.1474 | 0.101 | -0.01564 | 0.0652 | –
6 | PLEGEYFTLQI [TP53_Y327_D324E] | – | – | – | – | Screen (variant relative to reference peptide, measured in the pTyr-Var library screen) (EPHB1 kinase domain): 1.418; Screen (Fer kinase domain; [5]): 1.311; Screen (c-Src kinase domain; [6]): 0.9967; Screen (EPHB2 kinase domain; [7]): 1.812
7 | ADAGMYGVLPW [PLP1_Y207_R205G] | 0.87 | 1.986 | – | 1.359 | Screen (c-Src kinase domain; [6]): -0.01805
8 | QNTVDYFDLFG [PTPN11_Y62_G60V_YF] | -3.39 | – | – | -4.099 | Screen (c-Src kinase domain; [6]): -1.317
9 | RQSTLYSFFPT [MSH6_Y8_K13T] | -0.1515 | 1.758 | -0.09567 | 0.1224 | –
10 | FRSSLYSLMET [MYO5C_Y633_L634S] | 2.366 | 3.791 | – | 1.684 | Screen (c-Src kinase domain; [6]): 2.978
11 | KQQEIYQEVTQ [CD209_Y239_L242V] | 0.2667 | 1.048 | -0.1121 | 0.564 | –
12 | LNGDRYFKGIV [DCX_Y64_R59L] | 2.112 | 2.021 | – | 1.457 | Screen (c-Abl kinase domain): 0.06367
13 | INPIIYAFVVE [CCR5_Y297_G301V] | -1.262 | -1.367 | -0.9018 | -1.294 | –
14 | NVVQEYERVII [NPHS2_Y131_K126N] | -0.6061 | 0.1682 | – | -0.3645 | –
15 | VVQGIYGFHHH [UFSP2_Y285_Y290H_YF] | – | – | – | – | Screen (variant relative to reference peptide, measured in the pTyr-Var library screen) (EPHB1 kinase domain): -1.444; Screen (Fer kinase domain; [5]): -0.4799; Screen (c-Src kinase domain; [6]): 0.2882; Screen (EPHB2 kinase domain; [7]): -2.017
16 | LTTEAYEWEPC [ELMOD3_Y61_R66C] | 1.595 | 1.258 | 2.164 | 1.193 | –
17 | ISSLLYELLEE [TRPC6_Y896_R895L] | – | – | – | – | Screen (variant relative to reference peptide, measured in the pTyr-Var library screen) (EPHB1 kinase domain): 3.527; Screen (Fer kinase domain; [5]): 3.789; Screen (c-Src kinase domain; [6]): 3.086; Screen (EPHB2 kinase domain; [7]): 3.042
18 | QTPVLYTMLDH [MPZ_Y220_A221T] | -1.287 | 0.203 | -0.5854 | -2.33 | –
19 | NKFTTYLPWLP [C9orf24_Y126_R129W_YF] | 3.061 | 4.402 | 3.427 | 3.885 | –
20 | NREGVYTDFAP [TGFBI_Y537_V539D] | – | – | – | – | Screen (variant relative to reference peptide, measured in the pTyr-Var library screen) (EPHB1 kinase domain): -2.047; Screen (Fer kinase domain; [5]): -1.802; Screen (c-Src kinase domain; [6]): -0.2611; Screen (EPHB2 kinase domain; [7]): -1.696
21 | QPSALYEDRFL [ASS1_Y83_S79P_YF] | -0.4777 | 0.05915 | -0.4742 | 0.0303 | –
22 | NNHGNYIVHLG [ETFDH_Y172_R175H] | 2.943 | – | – | 1.999 | –
23 | GRKTLYSFFSP [UNG_Y8_Q4R] | – | – | – | – | Screen (variant relative to reference peptide, measured in the pTyr-Var library screen) (EPHB1 kinase domain): -1.828; Screen (Fer kinase domain; [5]): -1.21; Screen (c-Src kinase domain; [6]): -1.198; Screen (EPHB2 kinase domain; [7]): -1.763
24 | HNMPIYEGFAL [ACTA1_Y168_V165M_YF] | 0.09959 | 0.2696 | 0.3248 | 0.1725 | Screen (c-Abl kinase domain): -1.455
25 | B1 | – | – | – | – | binding result [1]: binds
26 | B2 | – | – | – | – | binding result [1]: binds
27 | B3 | – | – | – | – | binding result [1]: binds
28 | B4 | – | – | – | – | binding result [1]: binds
